Measured values published in the supplement of paper PMC6045584.
± gives the standard deviation of the averaged measurements.

Columns and labels:
[1] = compound: CCCS(=O)(=O)Nc1ccc(F)c(C(=O)c2c[nH]c3ncc(Cl)cc23)c1F [PLX-4720]; assay: surviving fraction relative to DMSO-only wells; higher = less growth inhibition; settings: exposure time: 5 days
Method in brief: (§1)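 Viability was determined by CellTiter-Glo luminescence, expressed as surviving fraction normalised to the median of DMSO-only wells. The cells were log-phase tumour cell lines seeded at 250–500 per well in 384-well plates and, after 24 hours, exposed continuously for five days to inhibitors at 0.5, 1, 5, 10, 50, 100, 500 and 1000 nM. Three screens per line were run, keeping only lines with replicate Pearson r >0.7 and median Z' >0.3.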

[2] = compound: O=C(O)CC[C@H]1CC[C@@](c2cc(F)ccc2F)(S(=O)(=O)c2ccc(Cl)cc2)CC1 [MK0752]; assay: as above; settings: exposure time: 5 days
Method in brief: as §1

Row | Test System | surviving fraction ([1]; 0.5 nM) | surviving fraction ([1]; 1 nM) | surviving fraction ([1]; 5 nM) | surviving fraction ([1]; 10 nM) | surviving fraction ([1]; 50 nM) | surviving fraction ([1]; 100 nM) | surviving fraction ([1]; 500 nM) | surviving fraction ([1]; 1000 nM) | surviving fraction ([2]; 0.5 nM) | surviving fraction ([2]; 1 nM) | surviving fraction ([2]; 5 nM) | surviving fraction ([2]; 10 nM) | surviving fraction ([2]; 50 nM) | surviving fraction ([2]; 100 nM) | surviving fraction ([2]; 500 nM) | surviving fraction ([2]; 1000 nM)
1 | NOS1 BONE | 0.85 ± 0.15 | 1 ± 0.11 | 0.961 ± 0.069 | 0.994 ± 0.2 | 1.17 ± 0.059 | 1.25 ± 0.12 | 1.11 ± 0.12 | 0.911 ± 0.057 | 1.08 ± 0.058 | 1.19 ± 0.087 | 1.16 ± 0.12 | 1.27 ± 0.068 | 1.16 ± 0.042 | 1.28 ± 0.23 | 1.05 ± 0.083 | 1.08 ± 0.032
2 | NY BONE | 0.905 ± 0.038 | 0.909 ± 0.026 | 0.933 ± 0.016 | 0.959 ± 0.02 | 0.949 ± 0.014 | 0.9663 ± 0.004 | 0.932 ± 0.0095 | 0.9273 ± 0.0065 | 1.04 ± 0.025 | 1.07 ± 0.03 | 1.11 ± 0.017 | 1.11 ± 0.052 | 1.07 ± 0.036 | 1.1 ± 0.02 | 1.02 ± 0.042 | 1.06 ± 0.034
3 | OS25HAL BONE | 0.902 ± 0.013 | 0.925 ± 0.016 | 0.934 ± 0.0061 | 0.942 ± 0.02 | 0.976 ± 0.01 | 0.98 ± 0.015 | 0.966 ± 0.0046 | 0.974 ± 0.014 | 1 ± 0.016 | 1.04 ± 0.029 | 1.022 ± 0.0072 | 0.99 ± 0.04 | 1.09 ± 0.0091 | 1.1 ± 0.048 | 1.02 ± 0.057 | 1.07 ± 0.02
4 | OSHN BONE | 0.859 ± 0.011 | 0.882 ± 0.017 | 0.89 ± 0.025 | 0.904 ± 0.018 | 0.944 ± 0.035 | 0.9783 ± 0.0029 | 0.978 ± 0.019 | 0.975 ± 0.016 | 1.12 ± 0.034 | 1.14 ± 0.035 | 1.11 ± 0.018 | 1.11 ± 0.018 | 1.11 ± 0.034 | 1.13 ± 0.018 | 1.12 ± 0.02 | 1.09 ± 0.017
5 | PCI30 HEADNECK | 1.03 ± 0.057 | 0.987 ± 0.0079 | 1.01 ± 0.032 | 1.06 ± 0.011 | 1 ± 0.024 | 1.07 ± 0.082 | 0.938 ± 0.087 | 0.959 ± 0.07 | 1.02 ± 0.12 | 1.04 ± 0.12 | 1.09 ± 0.057 | 1.1 ± 0.05 | 1.06 ± 0.076 | 1.08 ± 0.092 | 1.03 ± 0.047 | 1.04 ± 0.018
6 | RDES SOFT TISSUE | 0.795 ± 0.13 | 0.683 ± 0.12 | 0.7 ± 0.079 | 0.747 ± 0.058 | 1.04 ± 0.11 | 0.989 ± 0.25 | 0.994 ± 0.054 | 0.793 ± 0.13 | 1.27 ± 0.1 | 1.241 ± 0.0096 | 1.17 ± 0.1 | 1.21 ± 0.18 | 1.03 ± 0.15 | 1.18 ± 0.29 | 0.97 ± 0.097 | 0.998 ± 0.12
7 | S68 BREAST | 0.773 ± 0.17 | 0.685 ± 0.22 | 0.775 ± 0.18 | 0.778 ± 0.19 | 1 ± 0.31 | 1.06 ± 0.12 | 1.09 ± 0.16 | 0.962 ± 0.15 | 0.684 ± 0.15 | 0.975 ± 0.11 | 0.912 ± 0.11 | 0.96 ± 0.28 | 0.94 ± 0.094 | 0.989 ± 0.058 | 0.919 ± 0.19 | 1.04 ± 0.27
8 | SAOS2 BONE | 0.824 ± 0.019 | 0.866 ± 0.013 | 0.891 ± 0.0052 | 0.831 ± 0.049 | 1.08 ± 0.038 | 1.12 ± 0.077 | 1.108 ± 0.0092 | 1.13 ± 0.095 | 1.18 ± 0.028 | 1.2037 ± 0.00058 | 1.19 ± 0.12 | 1.22 ± 0.077 | 1.237 ± 0.0098 | 1.19 ± 0.076 | 1.12 ± 0.019 | 1.092 ± 0.0035
9 | SCC36 HEADNECK | 0.761 ± 0.06 | 0.694 ± 0.059 | 0.803 ± 0.036 | 0.76 ± 0.028 | 0.97 ± 0.058 | 0.983 ± 0.017 | 0.974 ± 0.13 | 0.958 ± 0.067 | 1.06 ± 0.15 | 1.13 ± 0.14 | 1.19 ± 0.064 | 0.962 ± 0.057 | 1.12 ± 0.035 | 1.03 ± 0.055 | 1.03 ± 0.047 | 0.965 ± 0.073
10 | SCC47 HEADNECK | 0.871 ± 0.025 | 0.853 ± 0.017 | 0.953 ± 0.041 | 0.884 ± 0.016 | 0.981 ± 0.03 | 1.09 ± 0.03 | 0.999 ± 0.14 | 1.01 ± 0.051 | 1.13 ± 0.12 | 1.17 ± 0.034 | 1.2 ± 0.089 | 1.14 ± 0.029 | 1.14 ± 0.064 | 1.18 ± 0.038 | 1.03 ± 0.067 | 1.06 ± 0.058
11 | SCC90 HEADNECK | 0.874 ± 0.13 | 0.819 ± 0.034 | 0.955 ± 0.011 | 0.965 ± 0.17 | 1.18 ± 0.12 | 1.25 ± 0.077 | 0.64 ± 0.1 | 0.539 ± 0.053 | 1.19 ± 0.014 | 1.11 ± 0.15 | 1.24 ± 0.11 | 1.25 ± 0.12 | 1.11 ± 0.064 | 1.13 ± 0.11 | 1.03 ± 0.093 | 1.11 ± 0.091
12 | SG27 HEADNECK | 0.659 ± 0.094 | 0.877 ± 0.1 | 0.962 ± 0.077 | 0.965 ± 0.12 | 0.788 ± 0.12 | 0.942 ± 0.11 | 0.928 ± 0.1 | 0.955 ± 0.1 | 0.973 ± 0.05 | 0.891 ± 0.052 | 1.05 ± 0.082 | 0.988 ± 0.096 | 1.01 ± 0.066 | 1.08 ± 0.047 | 0.933 ± 0.14 | 0.923 ± 0.16
13 | SG28 HEADNECK | 0.279 ± 0.033 | 0.796 ± 0.12 | 0.718 ± 0.057 | 0.849 ± 0.082 | 0.513 ± 0.014 | 0.964 ± 0.027 | 0.818 ± 0.11 | 0.959 ± 0.036 | 1.15 ± 0.048 | 1.04 ± 0.062 | 1.05 ± 0.055 | 1.1 ± 0.027 | 0.982 ± 0.075 | 1.05 ± 0.044 | 1.12 ± 0.13 | 1.13 ± 0.11
14 | SG31 HEADNECK | 0.492 ± 0.037 | 0.775 ± 0.056 | 0.765 ± 0.053 | 0.96 ± 0.18 | 0.642 ± 0.068 | 0.843 ± 0.048 | 0.963 ± 0.025 | 1.06 ± 0.12 | 1.16 ± 0.18 | 1.07 ± 0.14 | 1.02 ± 0.2 | 0.991 ± 0.21 | 0.881 ± 0.14 | 0.963 ± 0.099 | 1.04 ± 0.17 | 1.11 ± 0.095
15 | SG32 HEADNECK | 0.341 ± 0.11 | 0.617 ± 0.029 | 0.494 ± 0.06 | 0.742 ± 0.094 | 0.366 ± 0.042 | 0.804 ± 0.079 | 0.623 ± 0.16 | 0.821 ± 0.035 | 1.11 ± 0.091 | 1.2 ± 0.039 | 1.26 ± 0.085 | 1.23 ± 0.11 | 1.21 ± 0.23 | 1.18 ± 0.039 | 0.972 ± 0.14 | 1.05 ± 0.086
